Experimental data taken from patent publication US20240390340A1 (INCYTE CORPORATION, priority 2023, published 2024).
Like-named read-outs stand apart in the source and are kept apart here.

Assays:
KRAS G12V = KRAS G12V (Homo sapiens, UniProt P01116, G12V); assay: GDP-GTP exchange assay (bodipy-GDP/GppNHp, SOS1), KRAS G12V; assay type: biochemical
Caco-2 cells = assay: Caco2 assay (Papp A-B); assay type: in vitro ADME; settings: test compound 50 μM, 120 min, 37° C.
Protocol: Caco-2 cells are grown at 37° C. in an atmosphere of 5% CO2 in DMEM growth medium supplemented with 10% (v/v) fetal bovine serum, 1% (v/v) nonessential amino acids, penicillin (100 U/mL), and streptomycin (100 μg/mL). Confluent cell monolayers are subcultured every 7 days or 4 days for Caco-2 by treatment with 0.05% trypsin containing […]. Caco-2 cells are seeded in 96-well Transwell plates. The seeding density for Caco-2 cells is 14,000 cells/well. DMEM growth medium is replaced every other day after seeding. Cell monolayers are used for transport assays between 22 and 25 days for Caco-2 cells.
Cell culture medium is removed and replaced with HBSS. To measure the TEER, the HBSS is added into the donor compartment (apical side) and receiver compartment (basolateral side). The TEER is measured by using a REMS Autosampler to ensure the integrity of the cell monolayers. Caco-2 cell monolayers with TEER values 300 Ω·cm^2 are used for transport experiments. To determine the Papp in the absorptive direction (A-B), solution of test compound (50 μM) in HBSS is added to the donor compartment (apical side), while HBSS solution with 4% BSA is added to the receiver compartment (basolateral side). The apical volume was 0.075 mL, and the basolateral volume is 0.25 mL. The incubation period is 120 min. at 37° C. in an atmosphere of 5% CO2. At the end of the incubation period, samples from the donor and receiver sides are removed and an equal volume of MeCN is added for protein precipitation. The supernatants are collected after centrifugation (3000 rpm, Allegra X-14R Centrifuge from Beckman Coulter, Indianapolis, IN) for LCMS analysis. The permeability value is determined according to the equation:
[formula] • where the flux rate (F, mass/time) is calculated from the slope of cumulative amounts of compound of interest on the receiver side, SA is the surface area of the cell membrane, VD is the donor volume, and MD is the initial amount of the solution in the donor chamber.
The symbol “+” indicates a Caco-2 value of ≤0.5, “++” indicates a Caco-2 value of >0.5 but ≤1; and “+++” indicates a Caco-2 value of >1. “NA” indicates IC50 not available.

KRAS G12D = KRAS G12D (Homo sapiens, UniProt P01116, G12D); assay: GDP-GTP exchange assay (bodipy-GDP/GppNHp, SOS1), KRAS G12D; assay type: biochemical
[1] = Table H, column G12V, for compounds isolated as several atropisomers/diastereoisomers the value for the most potent isomer is quoted, read-out: KRAS G12V exchange assay IC50
[2] = Table H, column G12D, for compounds isolated as several atropisomers/diastereoisomers the value for the most potent isomer is quoted, read-out: KRAS G12D exchange assay IC50

Sequence of KRAS G12V (P01116 1-188 isoform P01116-2 G12V): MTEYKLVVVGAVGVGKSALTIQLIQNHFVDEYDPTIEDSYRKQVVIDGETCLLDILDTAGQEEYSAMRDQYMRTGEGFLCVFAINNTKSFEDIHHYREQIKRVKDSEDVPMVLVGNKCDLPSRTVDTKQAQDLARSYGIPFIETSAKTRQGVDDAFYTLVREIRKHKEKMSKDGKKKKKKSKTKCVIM
Sequence of KRAS G12D (P01116 1-188 isoform P01116-2 G12D): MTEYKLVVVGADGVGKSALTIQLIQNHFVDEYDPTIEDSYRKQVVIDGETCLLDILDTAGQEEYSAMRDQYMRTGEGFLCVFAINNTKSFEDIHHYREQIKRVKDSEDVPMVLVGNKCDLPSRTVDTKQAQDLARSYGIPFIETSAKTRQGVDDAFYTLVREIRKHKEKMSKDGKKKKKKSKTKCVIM

| IC50 (KRAS G12V; KRAS G12V mutant, value for the most potent isomer quoted for certain compounds, read-out: G12V (KRAS G12V exchange assay IC50)) | Caco-2 (Caco-2 cells) | IC50 (KRAS G12D; bodipy-loaded KRAS G12D 2.5 nM, 4 h pre-incubation, value for the most potent isomer quoted for certain compounds, read-out: G12D (KRAS G12D exchange assay IC50)) | IC50 (KRAS G12V; [1]) | IC50 (KRAS G12D; [2]) | Structure (SMILES) |
| --- | --- | --- | --- | --- | --- |
| ≤ 100 nM | ++ (a Caco-2 value of >0.5 but ≤1) | ≤ 100 nM |  |  | COC[C@@H]1[C@@H](Oc2cc(OC)ncc2F)C[C@H](c2cc3c([C@@H](C)O)nc4c(F)c(-c5cccc(Cl)c5Cl)c(CCC#N)cc4c3n2[C@H]2[C@H]3CN[C@@H]2C3)N1C(=O)C1CC1 [Example 83] |
|  | + (a Caco-2 value of ≤0.5) |  | ≤ 100 nM | ≤ 100 nM | Cc1nc2c(F)c(-c3cccc(Cl)c3Cl)c(CCC#N)cc2c2c1cc([C@H]1C[C@H](OCc3ccon3)CN1C(=O)C1CC1)n2[C@H]1[C@H]2CN[C@@H]1C2 [Example 12] |
|  | ++ (a Caco-2 value of >0.5 but ≤1) |  | ≤ 100 nM | ≤ 100 nM | Cc1nc2c(F)c(-c3cccc(Cl)c3Cl)c(CCC#N)cc2c2c1cc([C@H]1C[C@H](Oc3ccc(N(C)C)nc3)CN1C(=O)C1CC1)n2[C@H]1[C@H]2CN[C@@H]1C2 [Example 38, 3-(1-((1R,4R,5S)-2-Azabicyclo[2.1.1]hexan-5-yl)-2-((2R,4S)-1-(cyclopropanecarbonyl)-4-((6-(dimethylamino)pyridin-3-yl)oxy)pyrrolidin-2-yl)-7-(2,3-dichlorophenyl)-6-fluoro-4-methyl-1H-pyrrolo[3,2-c]quinolin-8-yl)propanenitrile] |
|  | + (a Caco-2 value of ≤0.5) |  | ≤ 100 nM | ≤ 100 nM | Cc1nc2c(F)c(-c3cccc(Cl)c3Cl)c(CCC#N)cc2c2c1cc([C@H]1C[C@H](OC3CCOCC3)CN1C(=O)C1CC1)n2[C@H]1[C@H]2CN[C@@H]1C2 [Example 22] |
|  | + (a Caco-2 value of ≤0.5) |  | ≤ 100 nM | ≤ 100 nM | Cc1nc2c(F)c(-c3cccc(Cl)c3Cl)c(CCC#N)cc2c2c1cc([C@H]1C[C@H](Oc3cnn(C)c3C(F)F)CN1C(=O)C1CC1)n2[C@H]1[C@H]2CN[C@@H]1C2 [Example 47, 3-(1-((1R,4R,5S)-2-Azabicyclo[2.1.1]hexan-5-yl)-2-((2R,4S)-1-(cyclopropanecarbonyl)-4-((5-(difluoromethyl)-1-methyl-1H-pyrazol-4-yl)oxy)pyrrolidin-2-yl)-7-(2,3-dichlorophenyl)-6-fluoro-4-methyl-1H-pyrrolo[3,2-c]quinolin-8-yl)propanenitrile] |
|  | + (a Caco-2 value of ≤0.5) |  | ≤ 100 nM | ≤ 100 nM | Cc1nc2c(F)c(-c3cccc(Cl)c3Cl)c(CCC#N)cc2c2c1cc([C@H]1C[C@H](n3cc(C4CCCCC4)nn3)CN1C(=O)C1CC1)n2[C@H]1[C@H]2CN[C@@H]1C2 [Example 69, 3-(1-((1R,4R,5S)-2-Azabicyclo[2.1.1]hexan-5-yl)-2-((2R,4S)-4-(4-cyclohexyl-1H-1,2,3-triazol-1-yl)-1-(cyclopropanecarbonyl)pyrrolidin-2-yl)-7-(2,3-dichlorophenyl)-6-fluoro-4-methyl-1H-pyrrolo[3,2-c]quinolin-8-yl)propanenitrile] |
|  | +++ (a Caco-2 value of >1) |  | ≤ 100 nM | ≤ 100 nM | Cc1cc(CO[C@H]2C[C@H](c3cc4c(C)nc5c(F)c(-c6cccc(Cl)c6Cl)c(CCC#N)cc5c4n3[C@H]3[C@H]4CN[C@@H]3C4)N(C(=O)C3CC3)C2)ns1 [Example 15] |
|  | +++ (a Caco-2 value of >1) |  | ≤ 100 nM | ≤ 100 nM | C[C@@H]1[C@@H](Oc2c(F)ccnc2Cl)C[C@H](c2cc3c([C@@H](C)O)nc4c(F)c(-c5cccc(Cl)c5Cl)c(CCC#N)cc4c3n2[C@H]2[C@H]3CN[C@@H]2C3)N1C(=O)C1CC1 [Example 64, 3-(1-((1R,4R,5S)-2-Azabicyclo[2.1.1]hexan-5-yl)-2-((2R,4S,5R)-4-((2-chloro-4-fluoropyridin-3-yl)oxy)-1-(cyclopropanecarbonyl)-5-methylpyrrolidin-2-yl)-7-(2,3-dichlorophenyl)-6-fluoro-4-((R)-1-hydroxyethyl)-1H-pyrrolo[3,2-c]quinolin-8-yl)propanenitrile] |
|  | ++ (a Caco-2 value of >0.5 but ≤1) |  | ≤ 100 nM | ≤ 100 nM | Cc1nc2c(F)c(-c3cccc(Cl)c3Cl)c(CCC#N)cc2c2c1cc([C@H]1C[C@H](OCc3cccc(C(F)(F)F)n3)CN1C(=O)C1CC1)n2[C@H]1[C@H]2CN[C@@H]1C2 [Example 10] |
